# Assay results from US8415469B2, “Compounds and methods for kinase modulation, and indications therefor” (Plexxikon Inc., priority 2005, dated 2013).
# pIC50: −log10 of the molar value.
# Key:
# Format in all cases: biochemical
# Abl = biological target: T1, Abl (Homo sapiens, UniProt P00519); experiment: AlphaScreen kinase assay, Abl; settings: read-out: activity toward kinase Abl, IC50
# T1 construct: P1121. pET-SPEC BI-PTP Abl G227-V515-X; His6 (N); made in house; host or cells: E. coli (PTP1B co-expressed)
# T1 sequence (P00519 with tags, fused parts or gaps): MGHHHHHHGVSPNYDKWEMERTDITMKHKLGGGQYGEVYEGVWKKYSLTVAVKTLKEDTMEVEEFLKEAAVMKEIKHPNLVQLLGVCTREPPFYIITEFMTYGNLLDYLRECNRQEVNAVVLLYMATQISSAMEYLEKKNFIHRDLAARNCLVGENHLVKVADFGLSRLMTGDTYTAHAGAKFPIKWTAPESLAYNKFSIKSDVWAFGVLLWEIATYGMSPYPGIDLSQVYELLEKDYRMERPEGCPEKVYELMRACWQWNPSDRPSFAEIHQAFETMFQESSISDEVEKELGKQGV
# Procedure, shortened: (§1)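 Uses phospho-specific antibody on acceptor beads plus streptavidin donor beads capturing biotinylated peptide substrate; singlet oxygen from donor excites nearby acceptor. Inhibitors tested in 8-point, 1:3 titrations starting from 20 mM DMSO solutions.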
# Erk2 = biological target: T2, Erk2 (Homo sapiens, UniProt P28482); experiment: AlphaScreen kinase assay, Erk2; settings: read-out: IC50, activity toward kinase Erk2
# T2 construct: P4227.pET15S ERK2/MEK1DD; His6 with thrombin site (N); made in house
# T2 sequence (P28482 with tags, fused parts or gaps): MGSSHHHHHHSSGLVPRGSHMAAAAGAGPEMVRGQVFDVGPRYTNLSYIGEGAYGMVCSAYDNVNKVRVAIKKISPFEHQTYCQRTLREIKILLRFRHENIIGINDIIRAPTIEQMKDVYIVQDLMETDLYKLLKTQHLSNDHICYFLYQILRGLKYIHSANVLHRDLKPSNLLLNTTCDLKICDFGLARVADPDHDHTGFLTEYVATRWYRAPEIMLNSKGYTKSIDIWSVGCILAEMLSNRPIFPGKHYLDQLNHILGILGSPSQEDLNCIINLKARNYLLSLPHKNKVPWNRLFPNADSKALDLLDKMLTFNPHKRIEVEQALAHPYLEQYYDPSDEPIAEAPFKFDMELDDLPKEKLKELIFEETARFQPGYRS
# Description: AlphaScreen assay was used to screen additional kinases. The assay is similarly dependent on the phosphorylation of a peptide substrate. In this assay, an antibody that recognizes phosphorylated substrate is bound to an acceptor bead. The peptide substrate is attached to biotin, which binds to a donor head that contains streptavidin. Thus phosphorylated substrate is bound by antibody and streptavidin, bringing the donor and acceptor heads into close proximity when kinase is not inhibited. The donor produces singlet oxygen which results in emission from the acceptor when they are in close proximity. Conversely, when kinase is inhibited, the donor and acceptor beads are not associated and the emission from the acceptor is reduced.
# AlphaScreen assays were done using compounds dissolved in DMSO to a concentration of 20 mM. The compounds were diluted accordingly to the desired final concentrations in each sample well, using 1:3 serial dilution for a total of 8 concentration points.
# Fak = biological target: T3, Fak (Homo sapiens, UniProt Q05397); experiment: AlphaScreen kinase assay, Fak; settings: read-out: IC50, activity toward kinase Fak
# T3 construct: P1358.pFastBacHtb FAK S411-Q686-X; His6 with pFastBacHTb leader (TEV site) (N); made in house; host or cells: Sf9 (baculovirus)
# FGFR1 = biological target: T4, FGFR1 (Homo sapiens, UniProt P11362, C488A/C584S); experiment: AlphaScreen kinase assay, FGFR1; settings: read-out: IC50, activity toward kinase FGFR
# T4 construct: P1351.pET N6 BI-PTP FGFR A458-E765-X C488A, C584S; made in house; host or cells: E. coli (PTP1B co-expressed)
# Kdr = biological target: T5, Kdr (Homo sapiens, UniProt P35968); experiment: Z'-Lyte FRET kinase assay (Invitrogen), Kdr; settings: read-out: IC50, activity toward kinase Kdr
# T5 construct: purchased Invitrogen (assay run by Invitrogen)
# T5 sequence (P35968 20-1356): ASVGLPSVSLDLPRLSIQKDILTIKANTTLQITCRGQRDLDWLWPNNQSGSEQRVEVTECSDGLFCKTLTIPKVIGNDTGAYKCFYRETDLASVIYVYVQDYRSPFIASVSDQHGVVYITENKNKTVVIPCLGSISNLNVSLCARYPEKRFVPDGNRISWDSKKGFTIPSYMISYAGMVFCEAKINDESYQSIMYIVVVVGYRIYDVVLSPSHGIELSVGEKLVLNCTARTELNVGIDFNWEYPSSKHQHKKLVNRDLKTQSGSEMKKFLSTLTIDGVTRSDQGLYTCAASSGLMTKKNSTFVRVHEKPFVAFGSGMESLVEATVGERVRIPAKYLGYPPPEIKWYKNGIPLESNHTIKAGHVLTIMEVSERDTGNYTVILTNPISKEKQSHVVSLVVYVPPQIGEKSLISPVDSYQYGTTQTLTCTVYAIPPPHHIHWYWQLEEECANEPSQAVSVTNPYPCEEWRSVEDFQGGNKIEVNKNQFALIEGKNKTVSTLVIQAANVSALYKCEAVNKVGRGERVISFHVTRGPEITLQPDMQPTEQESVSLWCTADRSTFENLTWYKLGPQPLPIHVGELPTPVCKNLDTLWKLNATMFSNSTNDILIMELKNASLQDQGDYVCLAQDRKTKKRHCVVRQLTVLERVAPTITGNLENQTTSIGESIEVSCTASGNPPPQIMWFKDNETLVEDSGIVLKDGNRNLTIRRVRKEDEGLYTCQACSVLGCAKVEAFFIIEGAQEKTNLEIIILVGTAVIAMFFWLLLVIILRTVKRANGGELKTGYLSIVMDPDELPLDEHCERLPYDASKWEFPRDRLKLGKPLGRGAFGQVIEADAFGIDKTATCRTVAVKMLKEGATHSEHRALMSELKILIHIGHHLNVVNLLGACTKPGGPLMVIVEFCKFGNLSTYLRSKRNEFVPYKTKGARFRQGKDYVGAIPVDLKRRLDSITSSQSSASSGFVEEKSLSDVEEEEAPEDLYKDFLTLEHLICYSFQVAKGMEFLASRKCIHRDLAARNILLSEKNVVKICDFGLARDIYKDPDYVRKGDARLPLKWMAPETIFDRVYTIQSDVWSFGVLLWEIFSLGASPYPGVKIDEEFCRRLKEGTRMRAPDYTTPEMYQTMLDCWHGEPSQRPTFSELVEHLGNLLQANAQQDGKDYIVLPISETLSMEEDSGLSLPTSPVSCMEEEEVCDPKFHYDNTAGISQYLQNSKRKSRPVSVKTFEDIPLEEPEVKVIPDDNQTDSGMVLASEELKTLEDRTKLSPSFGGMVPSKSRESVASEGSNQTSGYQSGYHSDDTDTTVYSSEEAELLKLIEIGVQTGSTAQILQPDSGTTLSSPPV
# Kit = biological target: T6, Kit (Homo sapiens, UniProt P10721); experiment: AlphaScreen kinase assay, Kit; settings: read-out: IC50, activity toward kinase Kit
# T6 construct: P1332.N6 BI PTP KIT M552-K948-X COD; His6 (N); made in house; host or cells: E. coli (PTP1B co-expressed)
# T6 sequence (P10721 with tags, fused parts or gaps): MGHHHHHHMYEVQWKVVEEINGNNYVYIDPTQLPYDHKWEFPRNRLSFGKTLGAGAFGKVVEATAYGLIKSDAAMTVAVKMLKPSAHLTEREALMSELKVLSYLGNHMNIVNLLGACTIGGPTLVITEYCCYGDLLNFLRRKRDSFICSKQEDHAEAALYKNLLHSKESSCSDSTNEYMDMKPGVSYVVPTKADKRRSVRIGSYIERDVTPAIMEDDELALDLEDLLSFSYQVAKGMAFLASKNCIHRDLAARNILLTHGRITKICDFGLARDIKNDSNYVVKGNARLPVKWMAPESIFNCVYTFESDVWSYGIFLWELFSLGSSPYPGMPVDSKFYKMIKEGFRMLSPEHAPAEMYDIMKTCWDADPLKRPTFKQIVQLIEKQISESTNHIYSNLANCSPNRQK
# Pyk2 = biological target: T7, Pyk2 (Homo sapiens, UniProt Q14289); experiment: AlphaScreen kinase assay, Pyk2; settings: read-out: IC50, activity toward kinase Pyk2
# T7 construct: purchased Upstate Biotechnology
# T7 sequence (Q14289 whole entry): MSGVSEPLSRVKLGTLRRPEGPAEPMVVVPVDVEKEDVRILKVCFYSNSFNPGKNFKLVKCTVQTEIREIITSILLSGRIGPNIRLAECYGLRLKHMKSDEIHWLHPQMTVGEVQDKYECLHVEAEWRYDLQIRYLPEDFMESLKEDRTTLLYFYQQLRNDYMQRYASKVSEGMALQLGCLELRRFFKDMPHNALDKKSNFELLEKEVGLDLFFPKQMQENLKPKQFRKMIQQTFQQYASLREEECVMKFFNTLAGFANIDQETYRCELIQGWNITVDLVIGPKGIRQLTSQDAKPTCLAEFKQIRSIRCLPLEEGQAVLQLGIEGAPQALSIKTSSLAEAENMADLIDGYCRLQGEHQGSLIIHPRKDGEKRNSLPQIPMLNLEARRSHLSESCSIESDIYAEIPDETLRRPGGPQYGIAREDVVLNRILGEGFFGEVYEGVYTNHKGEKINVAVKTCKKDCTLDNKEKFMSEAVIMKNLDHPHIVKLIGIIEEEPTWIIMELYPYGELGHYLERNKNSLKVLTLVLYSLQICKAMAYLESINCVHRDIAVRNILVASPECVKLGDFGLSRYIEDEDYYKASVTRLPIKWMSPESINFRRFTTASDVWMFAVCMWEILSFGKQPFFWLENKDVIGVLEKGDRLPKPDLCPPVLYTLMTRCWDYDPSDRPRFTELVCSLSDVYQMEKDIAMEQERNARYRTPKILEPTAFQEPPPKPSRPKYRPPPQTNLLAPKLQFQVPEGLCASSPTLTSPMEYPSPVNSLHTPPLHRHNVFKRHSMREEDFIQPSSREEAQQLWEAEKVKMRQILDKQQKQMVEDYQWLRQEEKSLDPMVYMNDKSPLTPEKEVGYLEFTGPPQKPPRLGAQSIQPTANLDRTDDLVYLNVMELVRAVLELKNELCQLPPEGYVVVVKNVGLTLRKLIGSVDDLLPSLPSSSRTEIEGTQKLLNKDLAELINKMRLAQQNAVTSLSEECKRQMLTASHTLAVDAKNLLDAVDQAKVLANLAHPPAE
# Ret = biological target: T8, Ret (Homo sapiens, UniProt P07949); experiment: AlphaScreen kinase assay, Ret; settings: read-out: IC50, activity toward kinase Ret
# T8 construct: P1378.pET-SF BI-PTP RET H661-R1012 HIS; made in house
# T8 sequence (P07949 with tags, fused parts or gaps): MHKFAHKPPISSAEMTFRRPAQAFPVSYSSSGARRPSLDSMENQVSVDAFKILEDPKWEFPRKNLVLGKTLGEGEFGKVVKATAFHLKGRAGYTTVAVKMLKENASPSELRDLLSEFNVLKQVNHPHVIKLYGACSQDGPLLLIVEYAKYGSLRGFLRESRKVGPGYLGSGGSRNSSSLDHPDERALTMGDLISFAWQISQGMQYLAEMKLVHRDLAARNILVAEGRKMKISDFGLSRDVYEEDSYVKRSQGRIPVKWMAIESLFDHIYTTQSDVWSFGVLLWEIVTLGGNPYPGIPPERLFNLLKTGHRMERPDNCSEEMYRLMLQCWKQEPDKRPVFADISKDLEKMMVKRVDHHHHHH
# Zap70 = biological target: T9, Zap70 (Homo sapiens, UniProt P43403); experiment: AlphaScreen kinase assay, Zap70; settings: read-out: IC50, activity toward kinase Zap70
# T9 construct: P1868.pFastBac1 ZAP70 D327-G606 HIS, WT; His7 (HHHHHHH) (C); made in house
# T9 sequence (P43403 with tags, fused parts or gaps): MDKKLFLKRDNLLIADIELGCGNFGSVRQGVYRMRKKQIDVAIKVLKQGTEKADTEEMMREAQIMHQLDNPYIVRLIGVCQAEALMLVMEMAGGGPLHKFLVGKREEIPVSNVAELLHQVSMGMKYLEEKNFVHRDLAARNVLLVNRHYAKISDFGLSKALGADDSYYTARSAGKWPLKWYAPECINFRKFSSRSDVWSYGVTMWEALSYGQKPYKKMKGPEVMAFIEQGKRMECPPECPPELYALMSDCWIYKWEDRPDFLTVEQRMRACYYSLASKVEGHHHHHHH
# Procedure, shortened: as §1
# Btk = biological target: T10, Btk (Homo sapiens, UniProt Q06187); experiment: Z'-Lyte FRET kinase assay (Invitrogen), Btk; settings: read-out: IC50, activity toward kinase Btk
# T10 construct: purchased Invitrogen (assay run by Invitrogen)
# Jnk3 = biological target: T11, Jnk3 (Homo sapiens, UniProt P53779); experiment: AlphaScreen kinase assay, Jnk3; settings: read-out: IC50, activity toward kinase Jnk3
# T11 construct: purchased Upstate Biotechnology
# T11 sequence (P53779 whole entry): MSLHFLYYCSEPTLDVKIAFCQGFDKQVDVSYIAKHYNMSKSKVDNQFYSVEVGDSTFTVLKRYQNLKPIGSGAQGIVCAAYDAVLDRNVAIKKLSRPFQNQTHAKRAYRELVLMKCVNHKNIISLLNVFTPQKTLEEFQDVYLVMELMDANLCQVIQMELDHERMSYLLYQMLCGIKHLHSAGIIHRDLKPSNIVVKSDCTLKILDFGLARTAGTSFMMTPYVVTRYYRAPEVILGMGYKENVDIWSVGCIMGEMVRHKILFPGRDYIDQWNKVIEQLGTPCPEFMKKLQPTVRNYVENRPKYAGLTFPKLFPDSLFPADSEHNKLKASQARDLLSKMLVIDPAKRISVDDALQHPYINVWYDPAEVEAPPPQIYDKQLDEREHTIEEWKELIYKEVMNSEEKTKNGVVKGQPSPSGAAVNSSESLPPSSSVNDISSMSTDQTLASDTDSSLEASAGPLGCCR
# MAP2K1 = biological target: T12, MAP2K1 (Homo sapiens, UniProt Q02750); experiment: Z'-Lyte FRET kinase assay (Invitrogen), MAP2K1; settings: read-out: IC50, activity toward kinase MAP2K1
# T12 construct: purchased Invitrogen (assay run by Invitrogen)
# PKC theta = biological target: T13, PKC theta (Homo sapiens, UniProt Q04759); experiment: Z'-Lyte FRET kinase assay (Invitrogen), PKC theta; settings: read-out: IC50, activity toward kinase PKC theta
# T13 construct: purchased Invitrogen (Carlsbad, Calif.), screening service
# Procedure, shortened: (§2)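 Inhibition was inferred from protease cleavage of non-phosphorylated peptide, measured as a coumarin/fluorescein ratio. Kinase reactions used 10 μM ATP for 1 h at room temperature.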
# Stk6 = biological target: T14, Stk6 (Homo sapiens, UniProt O14965); experiment: Z'-Lyte FRET kinase assay (Invitrogen), Stk6; settings: read-out: IC50, activity toward kinase Stk6
# T14 construct: purchased Invitrogen (Carlsbad, Calif.), screening service
# T14 sequence (O14965 1-403): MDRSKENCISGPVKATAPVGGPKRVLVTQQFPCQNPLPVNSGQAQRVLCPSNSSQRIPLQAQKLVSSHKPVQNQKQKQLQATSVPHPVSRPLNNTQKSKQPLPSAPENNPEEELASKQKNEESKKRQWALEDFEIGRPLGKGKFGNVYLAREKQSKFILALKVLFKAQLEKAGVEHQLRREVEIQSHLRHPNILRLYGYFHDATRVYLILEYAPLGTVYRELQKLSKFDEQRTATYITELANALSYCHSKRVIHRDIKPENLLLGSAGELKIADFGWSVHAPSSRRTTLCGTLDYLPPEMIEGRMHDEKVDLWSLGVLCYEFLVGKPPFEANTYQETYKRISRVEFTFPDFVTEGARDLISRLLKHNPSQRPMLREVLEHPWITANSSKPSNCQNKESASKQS
# Yes = biological target: T15, Yes (Homo sapiens, UniProt P07947); experiment: Z'-Lyte FRET kinase assay (Invitrogen), Yes; settings: read-out: IC50, activity toward kinase Yes
# T15 construct: purchased Invitrogen (Carlsbad, Calif.), screening service
# Procedure, shortened: as §2
# IGF1R = IGF1R (Homo sapiens, UniProt P08069); experiment: AlphaScreen kinase assay, IGF1R; settings: read-out: IC50, activity toward kinase IGF1R
# Chain of IGF1R (P08069 31-1367): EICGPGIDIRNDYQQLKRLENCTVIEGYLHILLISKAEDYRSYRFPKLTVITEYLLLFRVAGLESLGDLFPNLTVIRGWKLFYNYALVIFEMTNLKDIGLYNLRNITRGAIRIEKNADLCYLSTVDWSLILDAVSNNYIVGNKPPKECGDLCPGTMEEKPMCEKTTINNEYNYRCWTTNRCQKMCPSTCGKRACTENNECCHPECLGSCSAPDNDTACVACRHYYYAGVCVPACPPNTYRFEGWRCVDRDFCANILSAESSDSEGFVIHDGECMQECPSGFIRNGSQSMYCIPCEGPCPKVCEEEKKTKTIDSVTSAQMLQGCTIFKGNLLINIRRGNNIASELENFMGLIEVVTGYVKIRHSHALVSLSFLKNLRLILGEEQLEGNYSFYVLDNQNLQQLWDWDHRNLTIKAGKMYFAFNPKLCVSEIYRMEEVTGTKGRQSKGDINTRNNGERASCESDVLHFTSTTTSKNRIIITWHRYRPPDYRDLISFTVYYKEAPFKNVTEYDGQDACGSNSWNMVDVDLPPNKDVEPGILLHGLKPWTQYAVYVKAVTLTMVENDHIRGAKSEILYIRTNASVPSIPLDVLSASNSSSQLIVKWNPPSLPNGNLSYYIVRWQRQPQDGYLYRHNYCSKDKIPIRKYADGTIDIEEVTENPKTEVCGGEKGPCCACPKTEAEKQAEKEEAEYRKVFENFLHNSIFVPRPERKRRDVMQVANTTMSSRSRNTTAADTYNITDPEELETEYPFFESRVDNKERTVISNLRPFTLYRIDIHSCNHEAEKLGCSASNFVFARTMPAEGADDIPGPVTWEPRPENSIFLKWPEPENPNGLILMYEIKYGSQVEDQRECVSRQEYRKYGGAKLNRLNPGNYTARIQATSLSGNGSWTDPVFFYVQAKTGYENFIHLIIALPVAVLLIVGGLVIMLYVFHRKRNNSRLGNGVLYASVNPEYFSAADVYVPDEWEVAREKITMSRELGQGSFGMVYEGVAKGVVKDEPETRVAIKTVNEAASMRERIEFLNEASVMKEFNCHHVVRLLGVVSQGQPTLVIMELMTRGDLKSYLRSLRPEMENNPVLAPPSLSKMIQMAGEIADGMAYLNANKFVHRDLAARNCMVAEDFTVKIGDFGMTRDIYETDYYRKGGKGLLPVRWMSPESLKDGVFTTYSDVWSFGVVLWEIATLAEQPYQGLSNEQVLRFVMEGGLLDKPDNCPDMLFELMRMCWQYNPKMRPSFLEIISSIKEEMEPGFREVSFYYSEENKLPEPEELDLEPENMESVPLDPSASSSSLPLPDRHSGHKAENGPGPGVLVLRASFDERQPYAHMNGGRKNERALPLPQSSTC
# Itk = biological target: T16, Itk (Homo sapiens, UniProt Q08881); experiment: AlphaScreen kinase assay, Itk; settings: read-out: IC50, activity toward kinase Itk
# T16 sequence (Q08881 1-620): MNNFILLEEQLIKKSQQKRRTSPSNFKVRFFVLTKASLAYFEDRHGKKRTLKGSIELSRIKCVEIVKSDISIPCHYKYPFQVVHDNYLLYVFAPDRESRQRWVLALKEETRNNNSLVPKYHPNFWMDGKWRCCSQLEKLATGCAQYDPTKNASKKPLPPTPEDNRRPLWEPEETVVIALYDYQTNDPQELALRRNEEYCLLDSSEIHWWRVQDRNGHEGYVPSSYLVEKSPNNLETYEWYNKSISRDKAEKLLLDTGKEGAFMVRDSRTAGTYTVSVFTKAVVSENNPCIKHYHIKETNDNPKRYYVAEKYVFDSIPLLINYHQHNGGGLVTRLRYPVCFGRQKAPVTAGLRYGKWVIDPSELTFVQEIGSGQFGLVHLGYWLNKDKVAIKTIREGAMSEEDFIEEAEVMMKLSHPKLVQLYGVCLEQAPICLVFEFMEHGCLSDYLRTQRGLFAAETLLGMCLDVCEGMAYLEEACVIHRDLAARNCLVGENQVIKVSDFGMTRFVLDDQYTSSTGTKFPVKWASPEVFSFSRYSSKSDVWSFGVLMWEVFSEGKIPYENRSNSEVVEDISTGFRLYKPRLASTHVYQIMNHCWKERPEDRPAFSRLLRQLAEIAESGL
# Procedure, shortened: as §1
# Plk1 = Plk1 (Homo sapiens, UniProt P53350); experiment: AlphaScreen kinase assay, Plk1; settings: read-out: IC50, activity toward kinase Plk1
# Procedure, shortened: as §1
pIC50 (Abl),pIC50 (Erk2),pIC50 (Fak),pIC50 (FGFR1),pIC50 (Kdr),pIC50 (Kit),pIC50 (Pyk2),pIC50 (Ret),pIC50 (Zap70),pIC50 (Btk),pIC50 (Jnk3),pIC50 (MAP2K1),pIC50 (PKC theta),pIC50 (Stk6),pIC50 (Yes),pIC50 (IGF1R),pIC50 (Itk),pIC50 (Plk1),SMILES
≥ 5.00,≥ 5.00,≥ 5.00,≥ 5.00,≥ 5.00,≥ 5.00,≥ 5.00,≥ 5.00,≥ 5.00,–,–,–,–,–,–,–,–,–,O=S(=O)(NCc1c[nH]c2ncccc12)c1ccc(N2CCOCC2)nc1 [Compound P-0611]
–,≥ 5.00,–,–,≥ 5.00,≥ 5.00,–,–,–,≥ 5.00,≥ 5.00,≥ 5.00,≥ 5.00,≥ 5.00,≥ 5.00,≥ 5.00,≥ 5.00,≥ 5.00,Cc1cc(C)cc(-c2ccnc3[nH]cc(C=O)c23)c1 [Compound P-0031]
